Experimental data published in US9931335B2, “Desethylhydroxychloroquine for the treatment of diseases associated with inflammation” (The Board of Trustees of the Leland Stanford Junior …, priority 2013, dated 2018).
Entries after “also recorded” stand apart in the source; their conditions may differ. Where a name gives a salt, the structure may show the parent alone.

Assays:
[1] = test system: collagen-induced arthritis (CIA) in DBA/1 mice; assay: Collagen-induced arthritis (CIA) mouse model for RA, treatment from first immunization; assay type: in vivo; settings: 50 mg/kg/day oral gavage, 100 mg/kg/day loading day 14-21; vs vehicle, Mann Whitney U test P<0.05
[2] = test system: diet-induced obesity in C57BL/6 mice; assay: Mouse diet-induced obesity: type II diabetes, hyperlipidemia and metabolic syndrome; assay type: in vivo; settings: 10 mg/kg/day, 6 weeks, vs vehicle; for blood glucose: two-tailed T test
Procedure: To evaluate treatment with DHCQ and HCQ on a mouse model of diet-induced type II diabetes, hyperlipidemia and metabolic syndrome, C57BL/6 mice (8 per group) were fed a high-fat “western-style” diet (60% caloric content from fat; Taconic). In an analogous fashion to that in Example 6, two weeks following initiation of the high-fat diet groups of mice were initiated on treatment with vehicle control, HCQ (10 mg/kg/day) or the HCQ metabolites DHCQ (10 mg/kg/day), DCQ (10 mg/kg/day), or BDCQ (10 mg/kg/day). After 6 weeks of treatment, blood was collected for analysis of glucose, triglyceride, and cholesterol levels.

ARPE-19 cells = test system: ARPE-19 cells
Procedure: The major serious risk to long term administration of hydroxychloroquine is retinal accumulation and subsequent ocular toxicity (Terahi et al, 2008. Semin Opthal. (3):201-208. PMID). The ocular deposition of HCQ, DHCQ, and BDCQ was evaluated by direct retinal cellular toxicity by incubating equivalent concentrations of these molecules with the retinal pigmented epithelial cell line ARPE-19. ARPE-19 is a human retinal pigment epithelial cell line with differentiated properties (Dunn et al., Exp Eye Res. 1996 62(2):155-69). ARPE-19 cells were grown to 90% confluence, and then exposed to 10 µg/ml of HCQ, DHCQ, BDCQ, or vehicle control for 24 hours, following which microscopic analysis and photomicroscopy was performed at 40× power.
As described above, ARPE-19 cells were grown to 90% confluence then exposed to 10 μg/ml HCQ, DHCQ, BDCQ, or vehicle control for 24 hours followed by quantitation of cell death by lactate dehydrogenase (LDH) release assay (Abcam).

retinal toxicity = settings: cited from earlier work
[3] = test system: DMM-induced OA in C57BL6 (B6) mice; assay: Destabilization of the medial meniscus (DMM) mouse model of osteoarthritis; assay type: in vivo; settings: aminoquinolines 100 mg/kg/day, atorvastatin 40 mg/kg/day, oral gavage from 1 week after DMM, 3 months; vs vehicle, two-tailed T test
Procedure: One week following surgical induction, treatment was initiated with vehicle control, hydroxychloroquine (HCQ), or desethylhydroxychloroquine (DHCQ) dosed at 100 mg/kg/day by oral gavage (once per day). After 3 months, mice were sacrificed, joints harvested, joint sections cut, and tissue sections stained with safranin-O. An examiner blinded to treatment used microscopy to score the severity of OA. The “Cartilage Degeneration Score” (also known as the “OA score”, “Severity Score” and “Histology Score”) was determined by a blinded examiner, and the two-tailed T test used to determine if there were statistical differences in the Cartilage Degeneration Scores between groups.
The histologic sections generated at the termination of the mouse OA experiment presented above and in FIG. 5 were subject to blinded scoring for the “Osteophyte Score” (measure of the amount of osteophyte or ectopic bone formation) and “Synovitis Score” (measure of the amount of synovial and joint inflammation). The scores between groups were compared by two-tailed T test.
Experiments were performed under protocols approved by the Stanford University Committee of Animal Research and in accordance with NIH guidelines. Murine OA was generated by surgically by destabilization of the DMM (Glasson, S., S., et al., Osteoarthritis Cartilage, 15: 1061-1069 (2007)).
Mice were euthanized 3 months after surgery. Their stifle joints were decalcified in EDTA solution, fixed in 4% paraformaldehyde, and embedded in paraffin. Serial 4 micron sections were cut and stained with toluidine blue. Scoring of arthritis in these histology sections was done according to a modified version of previously described composite scoring systems (Kamekura, S., et al. Osteoarthritis Cartilage 13: 632-641 (2005); Bendele, A. M., J Musculoskelet Neuronal Interact., 1: 363-376 (2001)). The “OA Score” was calculated as follows: cartilage degeneration (0-4) was multiplied by the width (1=1/3, 2=2/3, and 3=3/3 of surface area) of each third of the femoral-medial and tibial-medial condyles, and the scores for the 6 regions were summed. To evaluate osteophyte (ectopic bone) formation, we scored toluidine-blue-stained sections according to a previously described scoring system (Kamekura, S., et al. Osteoarthritis development in novel experimental mouse models induced by knee joint instability. Osteoarthritis Cartilage 13, 632-641 (2005)): 0, none; 1, formation of cartilage-like tissues; 2, increase of cartilaginous matrix; 3, endochondral ossification. To evaluate synovitis, we scored H&E-stained sections according to a previously described scoring system (Blom, A. B., et al. Synovial lining macrophages mediate osteophyte formation during experimental osteoarthritis. Osteoarthritis Cartilage 12, 627-635 (2004)): 0, no changes compared to normal joints; 1, thickening of the synovial lining and some influx of inflammatory cells; 2, thickening of the synovial lining and intermediate influx of inflammatory cells; and 3, profound thickening of the synovial lining (more than four cell layers) and maximal observed influx of inflammatory cells. Scores for osteophyte formation and synovitis were recorded for the femoral-medial and the tibial-medial condyles on the operated side of the joint, and the scores for the two regions were summed and statistical comparisons performed using a two-tailed T test.
Treatment was started 1 week after surgical induction of destabilization of the medial meniscus (DMM), a time point at which mice were at increased risk for the development of OA.

Compound: CC(CCCN)Nc1ccnc2cc(Cl)ccc12 (centres unmarked) [BDCQ, bisdesethylchloroquine]
- arthritis score (development of disease and disease activity) [1]: not associated with statistical protection or reduction in disease severity
- total cholesterol [2]: did not result in statistical reductions
- triglycerides [2]: did not result in statistical reductions
- blood glucose [2]: did not result in statistical reductions in blood glucose
- ARPE-19 cellular toxicity by microscopy (ARPE-19 cells): increased cytotoxicity and death

Compound: CCNCCCC(C)Nc1ccnc2cc(Cl)ccc12 (centres unmarked) [DCQ, desethylchloroquine]
- arthritis score (development of disease and disease activity) [1]: not associated with statistical protection or reduction in disease severity
- total cholesterol [2]: did not result in statistical reductions
- triglycerides [2]: did not result in statistical reductions
- blood glucose [2]: did not result in statistical reductions in blood glucose

Compound: CCN(CCO)CCCC(C)Nc1ccnc2cc(Cl)ccc12 (centres unmarked) [HCQ sulfate, hydroxychloroquine sulfate]
- incidence of retinal toxicity after 5 years (retinal toxicity; treated humans, conventional doses): 0.5-1%
- incidence of retinal toxicity after 10-15 years (retinal toxicity; treated humans): approximately 2%
- physician discontinuation for earlier eye problems over 5 years (retinal toxicity; treated patients): ~7%

Compound: CC(C)c1c(C(=O)Nc2ccccc2)c(-c2ccccc2)c(-c2ccc(F)cc2)n1CC[C@@H](O)C[C@@H](O)CC(=O)O [atorvastatin, reference compound]
- Cartilage Degeneration Score (OA score) [3]: only resulted in trends towards improvement; also recorded: did not result in a statistically significant reduction in the severity of OA

Compound: CCN(CC)CCCC(C)Nc1ccnc2cc(Cl)ccc12 (centres unmarked) [chloroquine]
- rates of retinal toxicity relative to HCQ (retinal toxicity; in vivo): Considerably higher rates of toxicity
